Among the data in ChEMBL document CHEMBL1201862, “PubChem BioAssay data set” (2004) are IC50, EC50 and AC50 values, retold here.

Assay [1] deals with Photoreceptor-specific nuclear receptor (Homo sapiens, UniProt Q9Y5X4). The assay is classed as functional, cell-based.
For assay [2], the target named is T1, Heat shock factor protein 1 (Mus musculus, UniProt P38532).
T1 sequence (P38532 whole entry): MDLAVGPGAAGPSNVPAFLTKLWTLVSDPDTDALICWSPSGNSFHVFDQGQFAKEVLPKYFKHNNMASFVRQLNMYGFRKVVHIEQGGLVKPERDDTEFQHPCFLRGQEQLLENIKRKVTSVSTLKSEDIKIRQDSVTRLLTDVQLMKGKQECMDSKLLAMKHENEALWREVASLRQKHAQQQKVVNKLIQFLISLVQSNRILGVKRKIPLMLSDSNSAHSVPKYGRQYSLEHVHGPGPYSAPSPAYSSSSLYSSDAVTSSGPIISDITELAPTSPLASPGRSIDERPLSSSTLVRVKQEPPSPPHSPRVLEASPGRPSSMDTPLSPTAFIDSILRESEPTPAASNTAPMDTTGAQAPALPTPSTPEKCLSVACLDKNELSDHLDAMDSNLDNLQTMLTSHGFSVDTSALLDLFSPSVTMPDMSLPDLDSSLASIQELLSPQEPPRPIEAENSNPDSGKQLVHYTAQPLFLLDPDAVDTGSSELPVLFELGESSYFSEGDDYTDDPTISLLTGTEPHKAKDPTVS
Nature of the assay: HSF1 potentiators in luciferase reporter cells, confirmation, cell-based, NIH3T3, luminescence, dose retest (AID 435004).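 Also: stress induced by proteasome inhibitor MG132 added 30 min after compound; luciferase reporter driven by HSF1 response element in NIH3T3 cells; actives raise luminescence as potentiators of the MG132 stress response.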 Format: functional.

A short description of assay [3]: cells. Format: functional, cell-based.
A further assay concerns INS1. Kind of assay: beta cell apoptosis inhibitors, cytokine rescue, dose response, luminescence, retest (AID 449756).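 Also: cell death triggered by IL-1 beta plus TNF-alpha plus IFN-gamma mixture; protective hits raise ATP signal compared with cytokine alone wells.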 Format: functional, cell-based. Particulars: Rattus norvegicus.
Assay [4] can be described thus: cells. The assay is classed as functional, cell-based. This is another data set of the same source.
For assay [5], the target named is T2, Type-1 angiotensin II receptor (Homo sapiens, UniProt P30556).
T2 sequence (P30556 whole entry): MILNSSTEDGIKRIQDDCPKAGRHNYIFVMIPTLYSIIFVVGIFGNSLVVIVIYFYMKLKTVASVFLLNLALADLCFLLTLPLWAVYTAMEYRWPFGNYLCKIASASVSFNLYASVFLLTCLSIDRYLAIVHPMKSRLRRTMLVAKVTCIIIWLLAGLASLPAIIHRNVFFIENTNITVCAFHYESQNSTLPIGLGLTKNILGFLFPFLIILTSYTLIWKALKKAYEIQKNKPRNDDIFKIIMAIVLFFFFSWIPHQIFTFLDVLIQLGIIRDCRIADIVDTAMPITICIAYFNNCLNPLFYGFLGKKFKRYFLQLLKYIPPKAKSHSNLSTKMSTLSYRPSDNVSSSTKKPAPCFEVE
Kind of assay: AT1 receptor antagonists, dose response, selectivity assay for APJ receptor antagonist project, cell-based, uHTS hits (AID 463214).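 Also: antagonist potency against angiotensin II stimulated AT1 response.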 Format: functional.

The next assay has as its target Beta-galactosidase (Escherichia coli, UniProt Q8VNN2). Nature of the assay: PubChem AID 485352. The assay is classed as functional.
In assay [6] the target is T3, Methionyl-tRNA synthetase, putative (Trypanosoma brucei brucei, UniProt Q38C91).
T3 sequence (Q38C91 whole entry): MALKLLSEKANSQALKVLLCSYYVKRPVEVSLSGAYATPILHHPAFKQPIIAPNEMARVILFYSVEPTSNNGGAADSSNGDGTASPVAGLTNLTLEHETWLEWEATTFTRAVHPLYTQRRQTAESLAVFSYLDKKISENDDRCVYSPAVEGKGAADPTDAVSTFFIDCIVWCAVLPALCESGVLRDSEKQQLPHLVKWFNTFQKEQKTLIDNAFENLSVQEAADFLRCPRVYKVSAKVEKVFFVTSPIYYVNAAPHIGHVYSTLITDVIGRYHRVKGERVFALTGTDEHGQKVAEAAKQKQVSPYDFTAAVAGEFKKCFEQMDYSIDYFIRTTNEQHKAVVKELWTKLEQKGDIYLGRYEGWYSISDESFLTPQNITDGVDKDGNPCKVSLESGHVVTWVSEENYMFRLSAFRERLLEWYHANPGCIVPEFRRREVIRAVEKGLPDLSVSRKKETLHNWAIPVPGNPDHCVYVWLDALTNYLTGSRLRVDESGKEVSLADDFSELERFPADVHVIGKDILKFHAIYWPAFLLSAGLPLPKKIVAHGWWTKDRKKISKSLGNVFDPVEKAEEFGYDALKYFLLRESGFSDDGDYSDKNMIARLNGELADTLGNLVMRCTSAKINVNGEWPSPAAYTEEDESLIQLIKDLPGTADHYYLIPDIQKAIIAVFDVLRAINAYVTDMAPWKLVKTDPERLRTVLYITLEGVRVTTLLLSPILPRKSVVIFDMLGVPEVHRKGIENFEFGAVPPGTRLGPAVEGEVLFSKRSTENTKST
The assay is classed as functional, Trypanosoma brucei brucei strain 927/4 GUTat10.1.

Assay [7] in a line: Counterscreen for inhibitors of Trypanosoma brucei methionyl tRNA synthetase (MetRS): Luminescence-based cell-based high throughput dose response assay to identify compounds that are cytotoxic to Jurkat human T lymphocyte cells. The assay is classed as functional.
The target of assay [8] is T3, Methionyl-tRNA synthetase, putative. The assay is classed as functional, Trypanosoma brucei brucei strain 927/4 GUTat10.1. This is another data set of the same source.
For assay [9], the target named is T4, Adenosylmethionine-8-amino-7-oxononanoate aminotransferase (Mycobacterium tuberculosis, UniProt P9WQ81).
T4 sequence (P9WQ81 whole entry): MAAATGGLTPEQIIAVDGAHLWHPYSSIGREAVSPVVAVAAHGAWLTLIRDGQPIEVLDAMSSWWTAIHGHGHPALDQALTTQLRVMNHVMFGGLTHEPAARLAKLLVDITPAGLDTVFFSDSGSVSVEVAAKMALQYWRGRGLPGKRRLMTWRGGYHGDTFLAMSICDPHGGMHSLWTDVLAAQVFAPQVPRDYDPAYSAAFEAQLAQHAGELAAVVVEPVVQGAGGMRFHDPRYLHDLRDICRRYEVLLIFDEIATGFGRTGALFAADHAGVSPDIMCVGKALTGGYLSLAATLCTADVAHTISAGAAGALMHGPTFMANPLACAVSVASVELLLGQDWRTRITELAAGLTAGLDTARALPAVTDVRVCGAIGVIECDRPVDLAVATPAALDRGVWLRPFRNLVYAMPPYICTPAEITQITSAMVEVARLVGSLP
Kind of assay: Mycobacterium tuberculosis BioA enzyme inhibitor Measured in Biochemical System Using Plate Reader - 2163-02_Inhibitor_Dose_CherryPick_Activity. Format: functional, Mycobacterium tuberculosis UT205.

The target of a further assay is T5, Streptokinase A (Streptococcus pyogenes serotype M1, UniProt P10520).
T5 sequence (P10520 whole entry): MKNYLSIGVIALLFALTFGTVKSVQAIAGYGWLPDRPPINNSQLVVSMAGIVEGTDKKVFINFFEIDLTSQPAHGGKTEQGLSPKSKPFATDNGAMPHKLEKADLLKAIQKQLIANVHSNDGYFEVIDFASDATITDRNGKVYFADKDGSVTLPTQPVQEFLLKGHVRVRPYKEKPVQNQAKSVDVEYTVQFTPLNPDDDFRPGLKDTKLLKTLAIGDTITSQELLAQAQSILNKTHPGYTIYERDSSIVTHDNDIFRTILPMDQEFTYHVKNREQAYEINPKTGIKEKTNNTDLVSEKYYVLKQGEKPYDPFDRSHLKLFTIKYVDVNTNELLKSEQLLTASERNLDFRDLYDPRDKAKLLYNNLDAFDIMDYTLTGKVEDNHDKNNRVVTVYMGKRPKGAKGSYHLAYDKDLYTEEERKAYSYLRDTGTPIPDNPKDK
Nature of the assay: S. pyogenes streptokinase expression inhibitors, potency, dose response, plasminogen activation absorbance, OD405 (AID 1914).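 Also: secreted streptokinase activity via plasminogen activation per viability signal from cell pellet.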 The assay is classed as functional, Streptococcus pyogenes M1 GAS.

The test system of assay [10] is Streptococcus sp. 'group A'. Kind of assay: growth inhibition of control SK(-) GAS strain, dose response, counter-screen for streptokinase expression inhibitor project, luminescence, kanamycin, BacTiterGlo, confirmation (AID 1900). The assay is classed as functional, organism-based.
The test system of the next assay is Streptococcus. Nature of the assay: Group A Streptococcus viability loss, dose response, counter-screen for streptokinase expression inhibitor project, luminescence, BacTiterGlo (AID 1915).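 Also: potency for reduction of bacterial viability or growth.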 Format: functional, organism-based.
Assay [11] can be described thus: inhibitors of intracellular T. cruzi replication, confirmation, NIH3T3 host cells, beta-gal luminescence (AID 2044).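 Also: intracellular parasites grown in NIH/3T3 mouse fibroblasts as host cells; luminescent beta-galactosidase reporter signal from transgenic T. cruzi replicating inside host cells; inhibitors lower the luminescence signal.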 The assay is classed as functional, cell-based.
Assay [12] can be described thus: cytotoxicity toward NIH3T3 fibroblasts, dose response, counter-screen, cell-based, ATP luminescence, mouse fibroblasts (AID 2010).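 Also: cells exposed to compound for about 90 hours before reading.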 Format: functional.
The next assay deals with Prothrombin (Bos taurus, UniProt P00735). Nature of the assay: thrombin inhibition, dose response, biochemical, fluorescence polarization, uHTS hits (AID 602369). Format: functional.
The target of assay [13] is Induced myeloid leukemia cell differentiation protein Mcl-1 (Homo sapiens, UniProt Q07820). The assay is classed as functional.
In assay [14] the target is 26S proteasome non-ATPase regulatory subunit 14 (Homo sapiens, UniProt O00487). Kind of assay: inhibition of proteasome subunit RPN11 – biochemical, fluorescence polarization, uHTS hits, confirmation (AID 602368). Format: functional.
Assay [15] addresses 72 kDa type IV collagenase (Homo sapiens, UniProt P08253). Kind of assay: Dose Response validation of uHTS RPN11 inhibitor hits using a MMP-2 Fluorescence assay. The assay is classed as functional.
Assay [16] deals with FAD-linked sulfhydryl oxidase ALR (Homo sapiens, UniProt P55789). Kind of assay: inhibitors of human ALR sulfhydryl oxidase, dose response, biochemical, H2O2 detection, luminescence, cherry-pick (AID 493248).

Calls of active or inactive are those of the source.

Photoreceptor-specific nuclear receptor, sequence (Q9Y5X4 whole entry): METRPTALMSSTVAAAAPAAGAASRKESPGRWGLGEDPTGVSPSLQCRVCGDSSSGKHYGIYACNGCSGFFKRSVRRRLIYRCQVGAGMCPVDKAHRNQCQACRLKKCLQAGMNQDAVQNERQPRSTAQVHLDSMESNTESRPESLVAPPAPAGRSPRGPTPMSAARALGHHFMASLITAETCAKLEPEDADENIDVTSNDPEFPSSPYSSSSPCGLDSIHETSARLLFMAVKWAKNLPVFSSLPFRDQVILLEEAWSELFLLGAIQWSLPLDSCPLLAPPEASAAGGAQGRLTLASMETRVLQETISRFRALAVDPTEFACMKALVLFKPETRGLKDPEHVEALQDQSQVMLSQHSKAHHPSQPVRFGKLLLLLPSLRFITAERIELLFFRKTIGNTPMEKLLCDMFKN
Beta-galactosidase, sequence (Q8VNN2 whole entry): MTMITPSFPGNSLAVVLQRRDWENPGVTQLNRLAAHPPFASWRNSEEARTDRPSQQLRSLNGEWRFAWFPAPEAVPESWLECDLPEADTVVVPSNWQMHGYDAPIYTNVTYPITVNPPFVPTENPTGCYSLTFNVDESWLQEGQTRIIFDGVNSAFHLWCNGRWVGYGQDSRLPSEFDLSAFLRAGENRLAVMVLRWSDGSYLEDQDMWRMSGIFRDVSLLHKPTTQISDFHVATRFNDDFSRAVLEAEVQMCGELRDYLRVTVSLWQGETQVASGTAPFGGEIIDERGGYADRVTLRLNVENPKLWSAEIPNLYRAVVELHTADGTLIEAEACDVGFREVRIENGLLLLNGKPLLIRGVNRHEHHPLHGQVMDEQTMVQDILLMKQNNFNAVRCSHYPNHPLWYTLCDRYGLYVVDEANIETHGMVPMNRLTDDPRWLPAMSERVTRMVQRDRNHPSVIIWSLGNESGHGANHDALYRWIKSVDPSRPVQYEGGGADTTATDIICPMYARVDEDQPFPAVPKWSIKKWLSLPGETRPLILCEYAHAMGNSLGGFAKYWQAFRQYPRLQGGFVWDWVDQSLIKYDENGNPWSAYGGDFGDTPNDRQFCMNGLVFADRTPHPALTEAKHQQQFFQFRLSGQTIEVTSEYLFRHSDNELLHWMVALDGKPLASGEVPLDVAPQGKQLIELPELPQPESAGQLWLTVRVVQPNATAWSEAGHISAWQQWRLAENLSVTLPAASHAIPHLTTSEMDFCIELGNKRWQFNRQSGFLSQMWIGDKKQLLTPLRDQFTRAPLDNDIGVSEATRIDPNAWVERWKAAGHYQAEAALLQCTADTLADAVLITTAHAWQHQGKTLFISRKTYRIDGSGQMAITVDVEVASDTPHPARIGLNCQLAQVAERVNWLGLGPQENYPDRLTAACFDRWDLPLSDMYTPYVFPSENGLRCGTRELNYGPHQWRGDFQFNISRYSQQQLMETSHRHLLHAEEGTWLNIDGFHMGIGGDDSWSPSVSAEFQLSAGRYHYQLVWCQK
Induced myeloid leukemia cell differentiation protein Mcl-1, sequence (Q07820 whole entry): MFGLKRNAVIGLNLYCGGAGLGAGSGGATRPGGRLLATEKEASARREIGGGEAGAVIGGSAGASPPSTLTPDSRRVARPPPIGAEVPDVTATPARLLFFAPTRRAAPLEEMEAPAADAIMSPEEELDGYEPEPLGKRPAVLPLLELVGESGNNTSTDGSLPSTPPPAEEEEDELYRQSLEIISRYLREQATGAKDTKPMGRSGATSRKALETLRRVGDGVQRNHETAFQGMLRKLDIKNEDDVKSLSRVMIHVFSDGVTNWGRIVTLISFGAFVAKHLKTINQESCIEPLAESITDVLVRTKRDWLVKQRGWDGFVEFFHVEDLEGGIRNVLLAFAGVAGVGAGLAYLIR
72 kDa type IV collagenase, sequence (P08253 whole entry): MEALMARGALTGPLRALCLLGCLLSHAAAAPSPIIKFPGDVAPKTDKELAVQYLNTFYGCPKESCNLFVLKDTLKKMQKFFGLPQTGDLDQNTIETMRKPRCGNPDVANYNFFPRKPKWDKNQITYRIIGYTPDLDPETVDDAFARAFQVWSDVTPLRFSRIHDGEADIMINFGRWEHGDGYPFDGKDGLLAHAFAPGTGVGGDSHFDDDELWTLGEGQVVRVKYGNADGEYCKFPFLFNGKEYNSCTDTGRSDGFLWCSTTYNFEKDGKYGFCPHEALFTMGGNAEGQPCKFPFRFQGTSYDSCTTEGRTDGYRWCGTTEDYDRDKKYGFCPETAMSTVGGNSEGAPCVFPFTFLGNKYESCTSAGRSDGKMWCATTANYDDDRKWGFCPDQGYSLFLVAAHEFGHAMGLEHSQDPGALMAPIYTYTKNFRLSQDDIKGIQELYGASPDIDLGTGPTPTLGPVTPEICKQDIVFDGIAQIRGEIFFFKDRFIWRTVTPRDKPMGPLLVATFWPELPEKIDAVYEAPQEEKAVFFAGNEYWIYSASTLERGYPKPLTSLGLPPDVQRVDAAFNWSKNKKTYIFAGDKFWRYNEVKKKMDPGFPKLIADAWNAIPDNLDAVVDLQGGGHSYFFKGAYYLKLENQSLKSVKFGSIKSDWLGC
FAD-linked sulfhydryl oxidase ALR, sequence (P55789 whole entry): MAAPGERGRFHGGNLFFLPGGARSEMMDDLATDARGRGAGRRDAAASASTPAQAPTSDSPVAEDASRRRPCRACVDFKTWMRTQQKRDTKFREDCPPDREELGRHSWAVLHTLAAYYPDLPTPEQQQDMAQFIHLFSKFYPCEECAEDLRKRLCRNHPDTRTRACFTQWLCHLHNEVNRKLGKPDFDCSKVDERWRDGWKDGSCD
26S proteasome non-ATPase regulatory subunit 14, sequence (O00487 whole entry): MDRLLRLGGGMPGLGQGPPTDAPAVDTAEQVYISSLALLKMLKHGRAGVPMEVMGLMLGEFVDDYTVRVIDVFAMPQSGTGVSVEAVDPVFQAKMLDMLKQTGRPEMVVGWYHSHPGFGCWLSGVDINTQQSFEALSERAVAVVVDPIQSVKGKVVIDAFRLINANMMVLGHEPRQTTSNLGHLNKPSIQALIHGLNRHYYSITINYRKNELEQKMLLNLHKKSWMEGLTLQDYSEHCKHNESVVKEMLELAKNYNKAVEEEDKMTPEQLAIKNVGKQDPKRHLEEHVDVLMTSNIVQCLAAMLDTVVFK

For the compound `N#C/C(=C\c1ccc(Sc2nc3ccccc3[nH]2)o1)c1ccccc1`, the IC50 in [1] is 4.69 µM (active). Also, the EC50 in [2] was 23.6 µM (active).

`O=C(Nc1nc(-c2ccccn2)cs1)c1cc(Cl)ccc1[N+](=O)[O-]`: the figures for the EC50 in the assay “cells [3]”, in “cells [4]” and on Beta-galactosidase were > 350 µM (not active), 9.68 µM (active) and > 40 µM (inactive), respectively. The AC50 in the assay with INS1 is 1.06 µM (active). In addition, in assay [5], the IC50 is 5.37 µM (active).

Turning to `CC(C(=O)OCC(=O)c1cccc([N+](=O)[O-])c1)N1C(=O)C2C3C=CC(C3)C2C1=O` (configuration not stated), the IC50 in [5] was > 40 µM (not active). The EC50 on Beta-galactosidase is > 40 µM (inactive).

For the compound `CCOc1ccc(CONS(=O)(=O)c2ccc(NC(C)=O)cc2)cc1Cl`, the IC50 in assay [6] was 17.7 µM (inactive); in assay [7], 83.3 µM (inactive); in assay [8], 11.1 µM (inactive).

With `COC(=O)c1c(C(=O)OC)c(-c2ccccc2)n2c1C[S+]([O-])C2` (configuration not stated), the AC50 in assay [9] is 4.67 µM (active).

In the case of `COC(=O)C1=C(C)N(Cc2ccccc2)C(=NCC(C)C)N[C@H]1c1cccc(F)c1`, in assay [5], the IC50 is listed as > 40 µM (not active). Also, the EC50 on Beta-galactosidase is > 40 µM (inactive).

Take `CCOc1ccc(CCNC(=O)c2cccnc2N2CCCC2)cc1OCC`: the IC50 in assay [5] is listed as > 40 µM (not active). The EC50 on Beta-galactosidase was > 40 µM (inactive).

As to `Cc1c(C(=O)Nc2ccc(Oc3ccccc3)cc2)sc2nc3n(c(=O)c12)CCC3`, the IC50 in assay [1] was 2.78 µM (active). Moreover, the results for the EC50 (on Streptokinase A; in assay [10]; in the assay on Streptococcus) were 39 µM (active), 6.66 µM (active) and > 150 µM (not active), respectively.

For `Cc1ccc(NC(=O)CN(C)C(=O)c2cc(S(=O)(=O)N(C)C)ccc2N2CCCC2)cc1`, the IC50 is 10.4 µM (inactive) in assay [6], 83.3 µM (inactive) in [7] and 4.27 µM (active) in [8].

For the compound `COc1ccc(OC)c(NC(=O)CSc2nnnn2-c2ccc3c(c2)OCO3)c1`, the IC50 in [1] was 0.24 µM (active).

For `Cc1nc2nc(SCC(=O)N3CCOCC3)nn2c(C)c1Cc1c(F)cccc1Cl`, the AC50 in assay [9] was 0.217 µM (active).

As for `CCn1c(SCC(=O)c2c[nH]c3ccccc23)nc2cc(S(=O)(=O)N3CCOCC3)ccc21`, the IC50 in assay [6] was 12.2 µM (inactive); in [7], 83.3 µM (inactive); in assay [8], 2.58 µM (active).

Take `CCC(Sc1nc(C)cc(=O)[nH]1)C(=O)Nc1sc2c(c1C#N)CCCC2` (configuration not stated): the IC50 in assay [1] was 5.4 µM (active).

On to `CCOC(=O)c1c(C)[n+](-c2ccc(C)cc2)c(CC)c2cc(OC)c(OC)cc12`, for which the AC50 in assay [9] was 4.21 µM (active). Moreover, the figures for the EC50 in [11] and in [12] were 0.292 µM (active) and > 60 µM (not active), respectively.

Consider `CS(=O)(=O)C1=NSC2=NC(=O)/C(=C\c3cccn3-c3ccccc3Cl)C(=N)N21`, for which the IC50 at Prothrombin was 52.6 µM (active); in [13], 4.35 µM (active); in assay [14], 30 µM (active); in [15] it was > 100 µM (inactive).

Consider `COC(=O)C[C@@H]1C[C@@H]2c3cc(NC(=O)c4cccnc4)ccc3O[C@@H]2[C@@H](CO)O1`, for which the AC50 in assay [9] was 13.6 µM (active).

For the compound `C/C(=N\Nc1nc2ccccc2[nH]1)c1ccc2c(c1)OCO2`, the EC50 on Streptokinase A is > 150 µM (not active); in [10], 13.3 µM (active); in assay [11], 1.37 µM (active); in assay [12], > 60 µM (not active); with Streptococcus, > 150 µM (not active). The values for the IC50 in assay [6], in assay [7] and in assay [8] were 28.2 µM (inactive), 48.4 µM (inactive) and 119 µM (inactive), respectively. Further, the AC50 in [16] is 0.116 µM (active).
